Measured values reported in patent US20260085058A1, “DEGRADERS OF SON OF SEVENLESS HOMOLOG 1” (H. LEE MOFFITT CANCER CENTER AND RESEARCH INSTITUTE, INC., priority 2022, published 2026).

Columns and labels:
[1] = target: T1, SOS1 (Homo sapiens, UniProt Q07889); assay: SOS1 degradation by immunoblot in colorectal cancer cell lines; format: cell-based; set-up: endogenous in cells; host or cells: SW620, HCT116, C2BB, SW1417
T1 sequence (Q07889 1-1333): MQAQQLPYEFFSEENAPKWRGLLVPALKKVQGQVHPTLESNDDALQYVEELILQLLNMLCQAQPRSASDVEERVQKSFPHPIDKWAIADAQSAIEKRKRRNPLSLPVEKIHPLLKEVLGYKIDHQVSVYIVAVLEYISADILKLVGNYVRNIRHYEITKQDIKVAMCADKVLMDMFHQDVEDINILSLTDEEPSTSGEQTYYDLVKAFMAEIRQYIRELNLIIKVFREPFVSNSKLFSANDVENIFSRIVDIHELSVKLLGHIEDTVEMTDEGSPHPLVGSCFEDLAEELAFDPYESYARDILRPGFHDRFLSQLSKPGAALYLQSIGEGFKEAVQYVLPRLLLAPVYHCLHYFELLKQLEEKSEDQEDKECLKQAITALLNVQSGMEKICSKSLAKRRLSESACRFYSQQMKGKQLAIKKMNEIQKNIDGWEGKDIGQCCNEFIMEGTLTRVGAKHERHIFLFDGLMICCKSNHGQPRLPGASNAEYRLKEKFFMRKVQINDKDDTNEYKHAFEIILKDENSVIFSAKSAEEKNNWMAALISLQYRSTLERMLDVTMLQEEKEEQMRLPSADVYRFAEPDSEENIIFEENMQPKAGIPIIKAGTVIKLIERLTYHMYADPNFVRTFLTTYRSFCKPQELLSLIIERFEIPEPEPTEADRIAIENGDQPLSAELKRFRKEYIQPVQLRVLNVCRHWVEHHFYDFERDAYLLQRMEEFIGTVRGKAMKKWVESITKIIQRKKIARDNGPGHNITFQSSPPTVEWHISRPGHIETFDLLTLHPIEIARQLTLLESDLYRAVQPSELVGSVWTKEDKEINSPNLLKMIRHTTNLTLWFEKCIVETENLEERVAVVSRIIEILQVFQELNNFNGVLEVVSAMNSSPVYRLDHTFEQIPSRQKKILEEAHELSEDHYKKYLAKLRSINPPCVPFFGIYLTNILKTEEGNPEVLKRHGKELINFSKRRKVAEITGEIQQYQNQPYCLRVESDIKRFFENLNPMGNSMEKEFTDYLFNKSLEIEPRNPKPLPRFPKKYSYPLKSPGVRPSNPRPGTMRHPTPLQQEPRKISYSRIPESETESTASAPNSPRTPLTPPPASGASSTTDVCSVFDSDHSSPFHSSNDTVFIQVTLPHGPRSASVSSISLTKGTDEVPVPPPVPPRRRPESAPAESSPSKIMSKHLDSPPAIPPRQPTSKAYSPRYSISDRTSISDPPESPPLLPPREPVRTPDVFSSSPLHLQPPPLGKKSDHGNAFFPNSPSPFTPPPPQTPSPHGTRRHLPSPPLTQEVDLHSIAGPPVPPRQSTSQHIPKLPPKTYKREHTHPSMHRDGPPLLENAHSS
Procedure: SW620, HCT116, C2BB, and SW1417 were purchased from the American Type Culture Collection. […] They were incubated under a 5% (v/v) CO2 atmosphere at 37° C.
Cells were plated in a 100 mm dish for incubation overnight before harvest for immunoblot. For drug treatment, cell confluency was checked prior to proceeding with the treatment. […] Approximately 40 μg protein samples were loaded into each well and separated by SDS-PAGE gel. After protein transfer onto nitrocellulose membranes, 5% skim milk in TBST was used to block the membranes for 1 hour at room temperature prior to incubation with primary antibodies overnight at 4° C. At the completion, a horseradish peroxidase-conjugated secondary antibody was applied at room temperature for 1 hour. The bands were visualized using Western Lightning Plus-ECL (PerkinElmer).

[2] = target: T1, SOS1; assay: Immunohistochemical staining of SOS1 on CRC patient-derived organoids; format: cell-based; set-up: endogenous in cells; host or cells: CRC patient-derived organoids MCC19990-002, MCC19990-010, MCC19990-013; details: MCC19990-002, MCC19990-010, MCC19990-013 PDOs, 1 μM, 24 hours, vs DMSO
Procedure: To one or two confluent wells of organoids was added 1:5 diluted 500 μL of 5 units/mL dispase in HBSS (StemCell: 07913) and incubated at 37° C. in 5% CO2 atmosphere. Organoids were harvested and transferred to a 1.5 mL Eppendorf tube. The pellet was collected after centrifugation at 1500 rpm for 6 min, and washed with 1×PBS. The pellet was resuspended in 1 mL of 4% PFA and incubated at 4° C. overnight. The pellet was resuspended in 100 μL of 37° C. warmed histogel, centrifuged at 1000 rpm for 30 seconds to settle the organoids. The gel was allowed to polymerize at 4° C. for 10 minutes and then the plug was transferred to a 5 mL tube containing 2 mL 70% ethanol, and sent to the histology lab. Organoids were paraffin-embedded and subjected to serial sections for hematoxylin and eosin staining and immunohistochemistry following a common procedure at the histology lab. The slides/sections were cut at 4 micron thickness using a Leica RM2245 microtome. Charged slides were used.
Immunohistochemical staining of SOS1 on organoids: Slides were stained using a Ventana Discovery Ultra automated system (Ventana Medical Systems, Tucson, AZ) as per manufacturer's protocol with proprietary reagents. Briefly, slides were deparaffinized on the automated system with Discovery Wash Solution (Ventana). Heat-induced antigen retrieval method was used in Cell Conditioning 1 Mild (Ventana). […]

## COc1cc2c(N[C@H](C)c3cc(N)cc(C(F)(F)F)c3)nc(C)nc2cc1OCC(=O)Nc1cccc2c1CN(C1CCC(=O)NC1=O)C2=O (stereo partly drawn) [P7, 2-((4-(((R)-1-(3-amino-S-(trifluoromethyl)phenyl)ethyl)amino)-6-methoxy-2-methylquinazolin-7-yl)oxy)-N-(2-(2,6-dioxopiperidin-3-yl)-1-oxoisoindolin-4-yl)acetamide]
[1]; HCT116, C2BB and SW1417 cells, different concentrations, 24 hours
  SOS1 degradation in other CRC cell lines: concentration-dependent
[1]; SW620 cells pre-treated with cycloheximide 100 μg/mL for 1 hour, then 1 μM P7, starting at 3 hours and sustained
  SOS1 degradation after cycloheximide pretreatment: more than 75%
[1]; SW620 cells pretreated 1 hour with BI3406 10 μM, lenalidomide 10 μM, MLN4924 0.5 μM or MG132, then P7 1 μM 24 h
  SOS1 degradation by P7 after pretreatment with competitors/pathway inhibitors: lack of significant SOS1 degradation
[1]; SW620 cells, 1 μM, 6 hours, immunoblot
  SOS1 degradation: 64%
[1]; SW620 cells, 1 μM, 48 hours, immunoblot
  SOS1 degradation: 92%
[1]; SW620 cells, 1 μM, different time points
  Time-dependent SOS1 degradation: time-dependent
[1]; SW620 cells, 6 hours, immunoblot
  SOS1 degradation compared to SOS1 inhibitor BI3406 and siRNA of SOS1: comparable with that by genetic knockdown
[1]; maximal degradation reported, CRC cell lines and PDOs
  SOS1 degradation (up to): up to 92%
[2]
  SOS1 expression by IHC (SOS1 degradation): significant SOS1 degradation at varying degrees
